pIC50: −log10 of the molar value.

In one assay the target is T1, SRC (Homo sapiens, UniProt P12931).
T1 construct: purchased Carna Biosciences
T1 sequence (P12931 whole entry): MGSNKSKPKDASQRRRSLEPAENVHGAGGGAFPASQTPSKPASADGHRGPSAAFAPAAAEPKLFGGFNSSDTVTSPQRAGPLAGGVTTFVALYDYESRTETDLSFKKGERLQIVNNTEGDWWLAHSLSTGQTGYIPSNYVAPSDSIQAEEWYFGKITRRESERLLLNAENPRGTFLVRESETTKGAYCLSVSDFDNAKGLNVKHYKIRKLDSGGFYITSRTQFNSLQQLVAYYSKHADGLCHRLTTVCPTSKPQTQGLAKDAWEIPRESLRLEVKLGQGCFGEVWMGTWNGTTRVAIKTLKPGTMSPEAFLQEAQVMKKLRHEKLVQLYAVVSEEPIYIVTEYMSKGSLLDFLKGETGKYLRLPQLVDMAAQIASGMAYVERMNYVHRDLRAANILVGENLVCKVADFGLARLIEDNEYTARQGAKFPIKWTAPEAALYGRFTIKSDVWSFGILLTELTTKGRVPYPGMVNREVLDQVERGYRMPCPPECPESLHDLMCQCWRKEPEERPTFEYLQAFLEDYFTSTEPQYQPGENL
The experiment in a line: In vitro kinase assay, SRC (Caliper EZ Reader conversion). Type of assay: biochemical. The following applies: read-out: SRC IC50. Here is the method: (§1) The effect of the compounds on the activity of SRC and PAK1 kinase were assessed. SRC and PAK1 kinase enzymes were obtained from Carna Biosciences.
Test compounds were dissolved in 100% DMSO to prepare a 20 mM stock. Compounds were stored in −20° C. and protected from light. […] Saracatinib was used as a positive control for the SRC assay, and FRAX597 was used as a positive control for the PAK1 assay. For the positive controls, a 3-fold serial dilution was made to achieve a total of 10 concentrations. 10 μL 1× Kinase buffer was used as the negative control.
First, 250 nL of the compounds at each dilution were transferred into wells of a 384-well plate. […] Then, 10 μL of enzyme mix was added to the 384-well plate, and the enzymes and compounds were pre-incubated at room temperature for 10 minutes. […] Then, 15 μL of substrate mix was added to a 384-well plate and reacted at room temperature for 30 min and 60 min. The reaction was stopped by adding 30 μL of the stop buffer, and the conversion rate was read using a Caliper EZ Reader.
(§2) Percent inhibition is calculated according to the following equation: […]
(§3) wherein “Conversion %_sample” is the conversion percentage value of the sample; “Conversion %_min” is the average conversion percentage value of the negative control; and “Conversion %_max” is the average conversion percentage value of the positive control.
(§4) The dose-response curve was fitted using GraphPad Prism software (version 5, […]), and the IC50 values for each compounds were calculated by log(inhibitor) vs. response using a variable slope program with the following formula:
(§5) Y=Bottom+(Top-Bottom)/(1+10^((Log IC50−X)*HillSlope))
Consider `CN1CCN(c2ccc(Nc3ncc4c(n3)N3CCN=C3C(c3ccc(Cl)cc3Cl)=C4)c(F)c2)CC1` [Compound 8, 6-(2,4-dichlorophenyl)-N-(2-fluoro-4-(4-methylpiperazin-1-yl)phenyl)-8,9-dihydroimidazo[1′,2′:1,6]pyrido[2,3-d]pyrimidin-2-amine], for which the pIC50 (as a rule, the negative decadic logarithm of the IC50, by convention in mol/L) was over 7.00.

As for `CCN1CCN(c2ccc(Nc3ncc4c(n3)N3CCN=C3C(c3ccc(Cl)cc3Cl)=C4)c(F)c2)CC1` [Compound 9, 6-(2,4-dichlorophenyl)-N-(4-(4-ethylpiperazin-1-yl)-2-fluorophenyl)-8,9-dihydroimidazo[1′,2′:1,6]pyrido[2,3-d]pyrimidin-2-amine], the negative-log IC50 (pIC50) is over 7.00. As to `Fc1cc(N2CCNCC2)ccc1Nc1ncc2c(n1)N1CCN=C1C=C2` [Compound 10, N-(2-fluoro-4-(piperazin-1-yl)phenyl)-8,9-dihydroimidazo[1′,2′:1,6]pyrido[2,3-d]pyrimidin-2-amine], the pIC50 was under 5.00. Still for that read-out and setting: in the case of `COc1nc(N2CCNCC2)ccc1Nc1ncc2c(n1)N1CCN=C1C(c1ccncc1)=C2` [Compound 41, N-(2-methoxy-6-(piperazin-1-yl)pyridin-3-yl)-6-(pyridin-4-yl)-8,9-dihydroimidazo[1′,2′:1,6]pyrido[2,3-d]pyrimidin-2-amine] it was under 5.00. For the molecule `Clc1cccc(Cl)c1C1=Cc2cnc(N3CCN(c4ccncc4)CC3)nc2N2CCN=C12` [Compound 51, 6-(2,6-dichlorophenyl)-2-(4-(pyridin-4-yl)piperazin-1-yl)-8,9-dihydroimidazo[1′,2′:1,6]pyrido[2,3-d]pyrimidine], the pIC50 was 5.00 to 7.00. Consider `C1=C(c2ccccc2)C2=NCCCN2c2nc(Nc3ccncc3)ncc21` [Compound 53, 6-phenyl-N-(pyridin-4-yl)-9,10-dihydro-8H-pyrido[1,6-a:2,3-d′]dipyrimidin-2-amine], for which the pIC50 was under 5.00. On the same count and under the same terms, as for `Clc1ccccc1C1=Cc2cnc(Nc3ccncc3)nc2N2CCCN=C12` [Compound 54, 6-(2-chlorophenyl)-N-(pyridin-4-yl)-9,10-dihydro-8H-pyrido[1,6-a:2,3-d′]dipyrimidin-2-amine], the figure is under 5.00; as for `Fc1cnccc1Nc1ncc2c(n1)N1CCCN=C1C(c1ccccc1)=C2` [Compound 55, N-(3-fluoropyridin-4-yl)-6-phenyl-9,10-dihydro-8H-pyrido[1,6-a:2,3-d′]dipyrimidin-2-amine], under 5.00.

With `Fc1ccccc1Nc1ncc2c(n1)N1CCCN=C1C(c1ccccc1)=C2` [Compound 56, N-(2-fluorophenyl)-6-phenyl-9,10-dihydro-8H-pyrido[1,6-a:2,3-d′]dipyrimidin-2-amine], the pIC50 was under 5.00.

Consider `COc1cccc(Nc2ncc3c(n2)N2CCCN=C2C(c2ccccc2Cl)=C3)c1` [Compound 60, 6-(2-chlorophenyl)-N-(3-methoxyphenyl)-9,10-dihydro-8H-pyrido[1,6-a:2,3-d′]dipyrimidin-2-amine], for which the pIC50 is 5.00 to 7.00.

Regarding `COc1ccccc1Nc1ncc2c(n1)N1CCCN=C1C(c1ccccc1Cl)=C2` [Compound 61, 6-(2-chlorophenyl)-N-(2-methoxyphenyl)-9,10-dihydro-8H-pyrido[1,6-a:2,3-d′]dipyrimidin-2-amine], the pIC50 is 5.00 to 7.00. On the same count and under the same terms, in the case of `CCNc1ncc2c(n1)N1CCCN=C1C(c1c(C)ccc3[nH]ncc13)=C2` [Compound 66, N-ethyl-6-(5-methyl-1H-indazol-4-yl)-9,10-dihydro-8H-pyrido[1,6-a:2,3-d′]dipyrimidin-2-amine] it was 5.00 to 7.00; in that of `Oc1ccncc1Nc1ncc2c(n1)N1CCCN=C1C(c1ccccc1Cl)=C2` [Compound 67, 3-((6-(2-chlorophenyl)-9,10-dihydro-8H-pyrido[1,6-a:2,3-d′]dipyrimidin-2-yl)amino)pyridin-4-ol], under 5.00.

In the case of `Cc1ccc(NC(=O)c2cc(C(F)(F)F)ccn2)cc1C1=Cc2cnc(N)nc2N2CCCN=C12` [Compound 76, N-(3-(2-amino-9,10-dihydro-8H-pyrido[1,6-a:2,3-d′]dipyrimidin-6-yl)-4-methylphenyl)-4-(trifluoromethyl)picolinamide], the pIC50 was 5.00 to 7.00.

For another assay, the target named is HPK1 (MAP4K1) (Homo sapiens, UniProt Q92918). The experiment in a line: HPK1 (MAP4K1) kinase Lantha screen assay. The class given is biochemical.
HPK1 (MAP4K1), sequence (Q92918 whole entry, species assumed): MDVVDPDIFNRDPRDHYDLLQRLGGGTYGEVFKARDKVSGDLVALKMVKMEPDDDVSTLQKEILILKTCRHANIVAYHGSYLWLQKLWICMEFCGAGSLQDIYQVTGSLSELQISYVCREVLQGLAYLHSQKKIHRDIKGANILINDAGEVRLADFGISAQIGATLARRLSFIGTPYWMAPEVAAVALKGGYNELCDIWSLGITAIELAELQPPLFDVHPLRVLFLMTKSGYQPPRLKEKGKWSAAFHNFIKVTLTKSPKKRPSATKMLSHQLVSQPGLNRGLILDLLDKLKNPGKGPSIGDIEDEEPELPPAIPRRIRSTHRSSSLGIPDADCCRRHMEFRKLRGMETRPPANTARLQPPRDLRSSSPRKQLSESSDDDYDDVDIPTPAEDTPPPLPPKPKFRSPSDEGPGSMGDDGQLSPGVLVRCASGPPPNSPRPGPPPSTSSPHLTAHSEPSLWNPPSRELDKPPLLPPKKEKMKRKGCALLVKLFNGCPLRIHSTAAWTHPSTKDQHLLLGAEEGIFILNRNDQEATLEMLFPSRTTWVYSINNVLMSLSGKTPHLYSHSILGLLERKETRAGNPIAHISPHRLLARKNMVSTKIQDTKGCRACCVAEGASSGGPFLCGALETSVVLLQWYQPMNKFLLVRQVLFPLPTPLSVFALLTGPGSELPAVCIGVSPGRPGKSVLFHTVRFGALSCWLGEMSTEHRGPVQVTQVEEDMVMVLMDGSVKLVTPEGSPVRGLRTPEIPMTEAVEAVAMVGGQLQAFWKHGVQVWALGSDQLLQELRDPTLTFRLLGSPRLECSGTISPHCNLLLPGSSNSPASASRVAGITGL
Conditions: not given
A digest of the protocol:
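Recombinant MAP4K1 preincubated 10 min with compound (6-point dilution, duplicates) in 50 mM HEPES pH 7.5, 10 mM MgCl2, then reacted with Fluorescein-PKC substrate and ATP for 90 min at room temperature. Antibody detection solution stopped reaction; after 60 min, TR-FRET read at ex 340 nm, em 520/495 nm.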
Turning to `Cc1ccc(NC(=O)c2cc(C(F)(F)F)ccn2)cc1C1=Cc2cnc(Nc3ccn[nH]3)nc2N2CCN=C12` [Compound 240, N-(3-(2-((1H-pyrazol-5-yl)amino)-8,9-dihydroimidazo[1′,2′:1,6]pyrido[2,3-d]pyrimidin-6-yl)-4-methylphenyl)-4-(trifluoromethyl)picolinamide], the pIC50 was over 7.00. Turning to `Cc1ccc(Nc2ncc3c(n2)N2CCN=C2C(c2cc(NC(=O)c4cc(C(F)(F)F)ccn4)c(F)cc2C)=C3)cn1` [Compound 267, N-(2-fluoro-4-methyl-5-(2-((6-methylpyridin-3-yl)amino)-8,9-dihydroimidazo[1′,2′:1,6]pyrido[2,3-d]pyrimidin-6-yl)phenyl)-4-(trifluoromethyl)picolinamide], the pIC50 is over 7.00.

Consider `Cc1cc(F)c(NC(=O)c2cc(C(F)(F)F)ccn2)cc1C1=Cc2cnc(Nc3ccn(C)n3)nc2N2CCN=C12` [Compound 269, N-(2-fluoro-4-methyl-5-(2-((1-methyl-1H-pyrazol-3-yl)amino)-8,9-dihydroimidazo[1′,2′:1,6]pyrido[2,3-d]pyrimidin-6-yl)phenyl)-4-(trifluoromethyl)picolinamide], for which the pIC50 was over 7.00. Regarding `CNc1ncc2c(n1)N1CCN=C1C(c1cc(C(=O)Nc3cc(C(F)(F)F)ccn3)c(F)cc1C)=C2` [Compound 277, 2-fluoro-4-methyl-5-(2-(methylamino)-8,9-dihydroimidazo[1′,2′:1,6]pyrido[2,3-d]pyrimidin-6-yl)-N-(4-(trifluoromethyl)pyridin-2-yl)benzamide], the pIC50 was 5.00 to 7.00. `CNc1ncc2c(n1)N1CCN=C1C(c1ccc(F)c(C(=O)Nc3cc(C(F)(F)F)ccn3)c1)=C2` [Compound 278, 2-fluoro-5-(2-(methylamino)-8,9-dihydroimidazo[1′,2′:1,6]pyrido[2,3-d]pyrimidin-6-yl)-N-(4-(trifluoromethyl)pyridin-2-yl)benzamide]: the pIC50 was under 5.00. Turning to `CNc1ncc2c(n1)N1CCN=C1C(c1cc(NS(=O)(=O)c3cccc(C(F)(F)F)c3)ccc1C)=C2` [Compound 283, N-(4-methyl-3-(2-(methylamino)-8,9-dihydroimidazo[1′,2′:1,6]pyrido[2,3-d]pyrimidin-6-yl)phenyl)-3-(trifluoromethyl)benzenesulfonamide], the pIC50 was under 5.00. Still for that read-out and setting: as for `CNc1ncc2c(n1)N1CCN=C1C(c1cc(NC(=O)C3(C(=O)Nc4ccc(F)cc4)CC3)ccc1Cl)=C2` [Compound 342, N-(4-chloro-3-(2-(methylamino)-8,9-dihydroimidazo[1′,2′:1,6]pyrido[2,3-d]pyrimidin-6-yl)phenyl)-N-(4-fluorophenyl)cyclopropane-1,1-dicarboxamide], the figure is 5.00 to 7.00.

With `CNc1ncc2c(n1)N1CCN=C1C(c1cc(NC(=O)C3(C(=O)Nc4ccc(F)cc4)CC3)c(F)cc1C)=C2` [Compound 343, N-(2-fluoro-4-methyl-5-(2-(methylamino)-8,9-dihydroimidazo[1′,2′:1,6]pyrido[2,3-d]pyrimidin-6-yl)phenyl)-N-(4-fluorophenyl)cyclopropane-1,1-dicarboxamide], the pIC50 is under 5.00. As to `Cc1cc(F)c(NC(=O)C2(C(=O)Nc3ccc(F)cc3)CC2)cc1C1=Cc2cnc(NC3COC3)nc2N2CCN=C12` [Compound 344, N-(2-fluoro-4-methyl-5-(2-(oxetan-3-ylamino)-8,9-dihydroimidazo[1′,2′:1,6]pyrido[2,3-d]pyrimidin-6-yl)phenyl)-N-(4-fluorophenyl)cyclopropane-1,1-dicarboxamide], the pIC50 is under 5.00.

The target of a further assay is PAK1 (Homo sapiens, UniProt Q13153). The experiment in a line: In vitro kinase assay, PAK1 (Caliper EZ Reader conversion).
PAK1, sequence (Q13153 whole entry): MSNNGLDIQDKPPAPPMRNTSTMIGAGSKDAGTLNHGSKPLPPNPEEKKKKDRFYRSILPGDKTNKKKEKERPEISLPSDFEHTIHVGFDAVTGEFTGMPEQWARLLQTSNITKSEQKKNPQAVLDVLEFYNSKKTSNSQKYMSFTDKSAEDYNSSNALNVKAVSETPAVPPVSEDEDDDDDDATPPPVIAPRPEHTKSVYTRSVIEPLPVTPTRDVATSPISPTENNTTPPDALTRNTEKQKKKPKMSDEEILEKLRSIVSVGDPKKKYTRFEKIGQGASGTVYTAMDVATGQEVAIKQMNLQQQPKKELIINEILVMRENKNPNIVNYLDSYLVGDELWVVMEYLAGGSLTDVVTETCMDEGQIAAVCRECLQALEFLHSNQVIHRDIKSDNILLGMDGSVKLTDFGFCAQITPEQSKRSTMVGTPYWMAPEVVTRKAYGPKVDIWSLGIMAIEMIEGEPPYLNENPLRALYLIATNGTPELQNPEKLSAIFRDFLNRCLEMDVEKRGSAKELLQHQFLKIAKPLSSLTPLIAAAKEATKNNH
Conditions: not given
Further details: purchased Carna Biosciences. Type of assay: biochemical. Here is the method: as §1
Test compounds were dissolved in 100% DMSO to prepare a 20 mM stock. Compounds were stored in −20° C. and protected from light. A 100×solution of the compounds were prepared, from which 4-fold serial dilutions was made to achieve a total of 6 concentrations. Saracatinib was used as a positive control for the SRC assay, and FRAX597 was used as a positive control for the PAK1 assay. For the positive controls, a 3-fold serial dilution was made to achieve a total of 10 concentrations. 10 μL 1× Kinase buffer was used as the negative control.
First, 250 nL of the compounds at each dilution were transferred into wells of a 384-well plate. The PAK1 and SRC kinases were diluted to a 2.5×final concentration with 1×Kinase buffer. Then, 10 μL of enzyme mix was added to the 384-well plate, and the enzymes and compounds were pre-incubated at room temperature for 10 minutes. […] Then, 15 μL of substrate mix was added to a 384-well plate and reacted at room temperature for 30 min and 60 min. The reaction was stopped by adding 30 μL of the stop buffer, and the conversion rate was read using a Caliper EZ Reader.
as §2, §3, §4, §5
With `CN1CCN(c2ccc(Nc3ncc4c(n3)N3CCN=C3C(c3ccc(Cl)cc3Cl)=C4)cc2F)CC1` [Compound 2, 6-(2,4-dichlorophenyl)-N-(3-fluoro-4-(4-methylpiperazin-1-yl)phenyl)-8,9-dihydroimidazo[1′,2′:1,6]pyrido[2,3-d]pyrimidin-2-amine], the negative logarithm of the IC50 (pIC50) is over 7.00.

Source of the values: US20230303570A1, “KINASE INHIBITORS AND USES THEREOF” (ABM Therapeutics Corporation, priority 2020, published 2023).
